# From patent US11142504B2, “Substituted heterocycles as c-MYC targeting agents” (Northwestern University, priority 2016, dated 2021)
# What was measured:
# MycCap cells = assay: Cell viability of MycCap cells; format: cell-based; settings: Mus musculus, Myc-CaP
# [1] = Stability in mouse liver microsomes; format: in vitro ADME; settings: % remaining of compound after 60 min treatment with mouse liver microsomes
# Protocol: In vitro metabolism of NUCC-176242 and NUCC-176248 were tested using mouse liver microsomes and a mouse S9 fraction. (See FIG. 9).
# PC12 cells = assay: Cell viability of PC12 cells; format: cell-based; settings: Rattus norvegicus, PC-12; Cell viability of PC12 cells
# Protocol: PC3 prostate cancer cell line with high Myc level and PC12 pheochromocytoma tumor cell line with non functional Max protein, which is not dependent on Myc-Max complex, were phased from ATCC. Cells were plated in 96 well plate at 1000 cells per well, and Myc inhibitor 361 at various concentrations was added to the cells next day. After 3 days of treatment, fresh medium with 361 were added again, and cell viability was measured by MTS assay at day 5 after the treatment. (See FIG. 11).
# MYC/Max binding to DNA = MYC/Max binding to DNA (Homo sapiens, UniProt P01106); assay: Electrophoretic mobility shift assay (EMSA)
# Chain of MYC/Max binding to DNA (P01106 whole entry, species assumed): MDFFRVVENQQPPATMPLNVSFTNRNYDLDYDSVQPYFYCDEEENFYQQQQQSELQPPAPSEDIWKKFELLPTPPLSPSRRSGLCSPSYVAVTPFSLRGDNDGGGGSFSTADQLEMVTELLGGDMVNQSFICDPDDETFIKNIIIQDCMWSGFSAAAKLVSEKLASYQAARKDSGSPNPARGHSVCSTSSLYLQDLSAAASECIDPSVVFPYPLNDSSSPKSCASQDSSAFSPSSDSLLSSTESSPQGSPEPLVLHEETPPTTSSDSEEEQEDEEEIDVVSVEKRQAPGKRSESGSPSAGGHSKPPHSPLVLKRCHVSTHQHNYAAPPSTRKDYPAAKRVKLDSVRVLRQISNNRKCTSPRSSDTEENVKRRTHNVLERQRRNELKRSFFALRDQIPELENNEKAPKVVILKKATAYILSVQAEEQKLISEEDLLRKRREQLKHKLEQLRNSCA
# Protocol: We also tested our best hit compound Min9 (NUCC-0176234) and newly synthesized analogs for effects of these compounds on MYC/Max binding to DNA in electrophoretic mobility shift assays (EMSAs). (See FIG. 5a and FIG. 5b). We expected the active compounds to impair MYC/Max binding to DNA. Several structural analogs of Min9 were tested over multiple doses for inhibiting MYC-DNA binding and we observed a dose-dependent inhibition. (See FIG. 5c).
MLM % at 60 min [1],IC50 (MYC/Max binding to DNA),SMILES,IC50 (MycCap cells),IC50 (PC12 cells)
,,CCCCOc1ccc(-c2cc(C(F)(F)F)nn2C)c(O)c1-c1cncc(C(F)(F)F)c1 [NUCC-0201204],23 µM,
21.8%,,Cn1nc(C(F)(F)F)cc1-c1ccc(OCc2ccc(Cl)cc2)cc1C=O [NUCC-0200976],3.9 µM,63.3 µM
,,COc1ccc(-c2c(-c3ccc(OCc4ccc(Cl)cc4)cc3O)n[nH]c2C(F)(F)F)cc1 [NUCC-0196312],4.8 µM,
,,Cn1nc(-c2ccc(OCc3ccc(Cl)cc3)c(-c3cccc(C#N)c3)c2O)cc1C(N)=O [NUCC-0200558],49.3 µM,31 µM
80.3%,,Cn1nc(C(F)(F)F)cc1-c1ccc(OCc2ccc(Cl)cc2)c(-c2cccc(C#N)c2)c1O [NUCC-0198399],2.5 µM,
,,N#Cc1cncc(-c2c(OCc3ccc(Cl)cc3)ccc(-c3cc(C(F)(F)F)n[nH]3)c2O)c1 [NUCC-0201038],6.8 µM,18.3 µM
,,Cn1nc(C(F)(F)F)cc1-c1ccc(OCc2ccc(Cl)cc2)c(-c2cccc(C(F)(F)F)c2)c1O [NUCC-0200974],10.2 µM,
,,CCc1ccc(Oc2c(-c3ccc(O)cc3O)n[nH]c2C(F)(F)F)cc1 [NUCC-0198406],17.5 µM,
,,Oc1cc(OCc2ccc(Cl)cc2)ccc1-c1n[nH]cc1-c1ccoc1 [NUCC-0198322],6.5 µM,
,,CCCCOc1ccc(-c2cc(C(F)(F)F)n(C)n2)c(O)c1-c1ccc(Cl)c(C(F)(F)F)c1 [NUCC-0201227],4.5 µM,1 µM
60.3%,,CCOC(=O)c1cc(-c2ccc(OCc3ccc(Cl)cc3)c(-c3cc(C(F)(F)F)cc(C(F)(F)F)c3)c2O)n[nH]1 [NUCC-0200972],5.1 µM,81 µM
,,CCOc1ncc(C(F)(F)F)cc1-c1c(OCc2ccc(Cl)cc2)ccc(-c2cc(C(F)(F)F)n[nH]2)c1O [NUCC-0201039],13.6 µM,
30.5%,,Oc1c(-c2cc(C(F)(F)F)n[nH]2)ccc(OCCN2CCCC2)c1-c1cc(C(F)(F)F)cc(C(F)(F)F)c1 [NUCC-0201032],1 µM,11 µM
,,CCc1ccc(Oc2c(-c3ccc(OCc4cccc(Cl)c4)cc3O)n[nH]c2C(F)(F)F)cc1 [NUCC-0196295],12.2 µM,
,,O=C1CCC(N2C(=O)c3cccc(OCc4cn(CCOCCOCCOCC(=O)Nc5ccc(COc6ccc(-c7cc(C(F)(F)F)n[nH]7)c(O)c6-c6cc(C(F)(F)F)cc(C(F)(F)F)c6)cc5)nn4)c3C2=O)C(=O)N1 (stereo not drawn) [NUCC-0201202],4 µM,23.1 µM
,,COc1ccc(-c2c(-c3ccc(OCc4ccc(Cl)cc4)cc3O)n[nH]c2C(F)(F)F)cc1OC [NUCC-0196283],2.3 µM,
,,CC(C)CCOc1ccc(-c2cc(C(F)(F)F)nn2C)c(O)c1-c1cncc(C(F)(F)F)c1 [NUCC-0201206],5 µM,
,,CCCCCCOc1ccc(-c2cc(C(F)(F)F)n[nH]2)c(O)c1-c1cncc(C#N)c1 [NUCC-0201194],4.2 µM,59.8 µM
,,[N-]=[N+]=NCCOCCOCCOCC(=O)Nc1ccc(COc2ccc(-c3cc(C(F)(F)F)n[nH]3)c(O)c2-c2cc(C(F)(F)F)cc(C(F)(F)F)c2)cc1 [NUCC-0201199],3 µM,12.7 µM

MLM % at 60 min [1],IC50 (MYC/Max binding to DNA),SMILES,IC50 (MycCap cells),IC50 (PC12 cells)
75.8%,,Oc1c(-c2cc(C(F)(F)F)[nH]n2)ccc(Oc2ccc(Cl)cc2)c1-c1cc(C(F)(F)F)cc(C(F)(F)F)c1 [NUCC-0201223],5.1 µM,40.6 µM
,,O=C(O)c1cc(-c2ccc(OCc3ccc(Cl)cc3)c(-c3cc(C(F)(F)F)cc(C(F)(F)F)c3)c2O)n[nH]1 [NUCC-0200973],68.3 µM,29.6 µM
,,Cn1nc(-c2ccc(OCc3ccc(Cl)cc3)c(-c3cc(C(F)(F)F)cc(C(F)(F)F)c3)c2O)cc1C(F)(F)F [NUCC-0196360],39.6 µM,
46.4%,,CCc1c(OCc2ccc(Cl)cc2)ccc(-c2cc(C(F)(F)F)n[nH]2)c1O [NUCC-0200739],2.2 µM,19.4 µM
,,CCc1ccc(Oc2c(-c3ccc(OCCc4ccc(Cl)cc4)cc3O)n[nH]c2C(F)(F)F)cc1 [NUCC-0196357],6.9 µM,
66.6%,,CCCCCCOc1ccc(-c2cc(C(F)(F)F)n[nH]2)c(O)c1-c1cc(C(F)(F)F)cc(C(F)(F)F)c1 [NUCC-0201196],4.5 µM,
,53.3 µM,Oc1cc(OCc2ccc(Cl)cc2)ccc1-c1n[nH]c(C(F)(F)F)c1-c1ccccc1 [NUCC-0198295],4.6 µM,
,,Oc1cc(OCc2ccc(Cl)cc2)ccc1-c1cc(C(F)(F)F)[nH]n1 [NUCC-0196313],4.2 µM,
,,COc1ccc(-c2cc(C(F)(F)F)n(C)n2)c(O)c1-c1cc(C(F)(F)F)cc(C(F)(F)F)c1 [NUCC-0201221],1.2 µM,
,,Cn1nc(C(F)(F)F)cc1-c1ccc(OCc2ccc(Cl)cc2)c(-c2cncc(C(F)(F)F)c2)c1O [NUCC-0201630],15.4 µM,42.3 µM
,,Cn1nc(-c2ccc(OCCCNC(=O)OC(C)(C)C)c(-c3cncc(C(F)(F)F)c3)c2O)cc1C(F)(F)F [NUCC-0201656],5.5 µM,18 µM
,,O=C1CCC(N2C(=O)c3cccc(OCc4cn(CCOCCOCCOCCOCC(=O)Nc5ccc(COc6ccc(-c7cc(C(F)(F)F)n[nH]7)c(O)c6-c6cc(C(F)(F)F)cc(C(F)(F)F)c6)cc5)nn4)c3C2=O)C(=O)N1 (stereo not drawn) [NUCC-0201203],32.4 µM,
,,CCCOc1ccc(-c2cc(C(F)(F)F)n[nH]2)c(O)c1-c1cc(C(F)(F)F)cc(C(F)(F)F)c1 [NUCC-0201197],3.4 µM,18.6 µM
52.7%,,CCCCCCOc1ccc(-c2cc(C(F)(F)F)nn2C)c(O)c1-c1cncc(C#N)c1 [NUCC-0201207],5.7 µM,
,,CCCCCCOc1ccc(-c2cc(C(F)(F)F)nn2C)c(O)c1-c1cncc(C(F)(F)F)c1 [NUCC-0201205],9.5 µM,36.3 µM
,102 µM,Oc1c(-c2cc(C(F)(F)F)[nH]n2)ccc(OCc2ccc(Cl)cc2)c1-c1cc(C(F)(F)F)cc(C(F)(F)F)c1 [NUCC-0196362],4 µM,
,,CC(CCOc1ccc(-c2cc(C(F)(F)F)n[nH]2)c(O)c1-c1cc(C(F)(F)F)cc(C(F)(F)F)c1)C(F)(F)F (stereo not drawn) [NUCC-0201198],2.6 µM,8.2 µM
,,NC(=O)c1ccc(-c2c(OCc3ccc(Cl)cc3)ccc(-c3cc(C(F)(F)F)[nH]n3)c2O)cc1 [NUCC-0198394],7.3 µM,
,,N#Cc1cccc(-c2c(OCc3ccc(Cl)cc3)ccc(-c3cc(C(F)(F)F)[nH]n3)c2O)c1 [NUCC-0198398],4.3 µM,

MLM % at 60 min [1],IC50 (MYC/Max binding to DNA),SMILES,IC50 (MycCap cells),IC50 (PC12 cells)
,,Cn1nc(-c2ccc(OCc3ccc(Cl)cc3)c(-c3ccc(F)cc3)c2O)cc1C(F)(F)F [NUCC-0196348],110 µM,
,,CC(C)CCOc1ccc(-c2cc(C(F)(F)F)n[nH]2)c(O)c1-c1cncc(C#N)c1 [NUCC-0201195],14.9 µM,70.3 µM
,,CCc1ccc(Oc2c(-c3ccc(OCc4ccc(Cl)c(Cl)c4)cc3O)n[nH]c2C(F)(F)F)cc1 [NUCC-0196355],11.8 µM,
,,COc1ccc(COc2ccc(-c3cc(C(F)(F)F)n[nH]3)c(O)c2-c2cc(C(F)(F)F)cc(C(F)(F)F)c2)cc1 [NUCC-0201041],12.6 µM,128 µM
,,Cn1nc(-c2ccc(OCc3ccc(Cl)cc3)c(-c3cncc(C#N)c3)c2O)cc1C(F)(F)F [NUCC-0201633],4.6 µM,27.3 µM
,,CCc1ccc(Oc2c(-c3ccc(OCCc4cccc(C(F)(F)F)c4)cc3O)n[nH]c2C(F)(F)F)cc1 [NUCC-0176245],4.1 µM,
,,Cn1nc(C(F)(F)F)cc1-c1ccc(OCc2ccc(Cl)cc2)c(Br)c1O [NUCC-0198407],7.8 µM,
,,N#Cc1ccc(-c2c(OCc3ccc(Cl)cc3)ccc(-c3cc(C(F)(F)F)[nH]n3)c2O)cc1 [NUCC-0198391],3.4 µM,
,,COc1ccc(-c2cc(C(F)(F)F)[nH]n2)c(O)c1-c1cc(C(F)(F)F)cc(C(F)(F)F)c1 [NUCC-0201220],4.9 µM,91.6 µM
10.3%,,CCCCOc1ccc(-c2cc(C(F)(F)F)n(C)n2)c(O)c1-c1cncc(C(F)(F)F)c1 [NUCC-0201209],4.4 µM,
,,Cc1ccc(-c2c(OCc3ccc(Cl)cc3)ccc(-c3cc(C(F)(F)F)[nH]n3)c2O)cc1 [NUCC-0196344],6.6 µM,
,,Cc1cc(C)c(-c2c[nH]nc2-c2ccc(OCc3ccc(Cl)cc3)cc2O)c(C)c1 [NUCC-0198359],7.6 µM,
,,CCCCOc1ccc(-c2cc(C(F)(F)F)n[nH]2)c(O)c1-c1ccc(Cl)c(C(F)(F)F)c1 [NUCC-0201225],19 µM,82.6 µM
,,C#CCOc1ccc(COc2ccc(-c3cc(C(F)(F)F)n[nH]3)c(O)c2-c2cc(C(F)(F)F)cc(C(F)(F)F)c2)cc1 [NUCC-0201219],9.5 µM,
,,CCCCCCOc1ccc(-c2cc(C(F)(F)F)n(C)n2)c(O)c1-c1cncc(C#N)c1 [NUCC-0201212],23.7 µM,30.8 µM
,,Oc1cc(OCc2ccc(Cl)cc2)ccc1-c1n[nH]cc1-c1cc(C(F)(F)F)cc(C(F)(F)F)c1 [NUCC-0198318],4.3 µM,
,,Oc1cc(OCc2ccc(Cl)cc2)ccc1-c1n[nH]cc1-c1cccc(Cl)c1 [NUCC-0196350],4.3 µM,
,,C#CCC(N=[N+]=[N-])C(=O)Nc1ccc(COc2ccc(-c3cc(C(F)(F)F)n(C)n3)c(O)c2-c2cncc(C(F)(F)F)c2)cc1 (stereo not drawn) [NUCC-0201699],24.3 µM,
